Data on eight molecules can be found in ChEMBL document CHEMBL1201862, “PubChem BioAssay data set” (2004).

Structures are written as SMILES. Active and inactive are the calls of the source.

As a reminder, the EC50 is the concentration at which the effect is half-maximal. What is called AC50 is the concentration at which the activity in the assay is half-maximal. For orientation: IC50 means the concentration needed to halve the response being measured.

For assay [1], the target named is T1, Alkaline phosphatase, tissue-nonspecific isozyme (Homo sapiens, UniProt P05186).
T1 sequence (P05186 whole entry): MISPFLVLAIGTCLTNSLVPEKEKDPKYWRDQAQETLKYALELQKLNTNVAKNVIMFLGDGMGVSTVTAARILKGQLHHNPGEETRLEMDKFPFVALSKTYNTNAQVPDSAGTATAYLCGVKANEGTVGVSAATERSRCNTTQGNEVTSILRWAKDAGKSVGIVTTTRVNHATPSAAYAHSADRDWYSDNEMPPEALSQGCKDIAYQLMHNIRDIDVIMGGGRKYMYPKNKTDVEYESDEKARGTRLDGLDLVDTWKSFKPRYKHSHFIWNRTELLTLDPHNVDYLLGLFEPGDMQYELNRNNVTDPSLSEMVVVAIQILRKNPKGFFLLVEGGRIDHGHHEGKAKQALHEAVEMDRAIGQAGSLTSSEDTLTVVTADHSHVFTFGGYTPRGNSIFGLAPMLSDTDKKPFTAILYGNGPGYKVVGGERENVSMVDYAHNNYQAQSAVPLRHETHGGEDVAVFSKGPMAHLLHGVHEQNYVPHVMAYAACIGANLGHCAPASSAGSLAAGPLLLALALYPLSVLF
The experiment in a line: activation of tissue-nonspecific alkaline phosphatase – biochemical, TNAP isozyme, mouse IAP uHTS hits, selectivity assay for mouse IAP activator project, dose response (AID 488880). The format is functional.

Assay [2] addresses T2, Intestinal-type alkaline phosphatase (Mus musculus, UniProt P24822). The experiment in a line: mouse intestinal alkaline phosphatase activators, dose response, biochemical, luminescence, uHTS hits (AID 488783). Format: functional.
For assay [3], the target named is T3, Intestinal-type alkaline phosphatase (Homo sapiens, UniProt P09923). Nature of the assay: activation of human intestinal alkaline phosphatase – biochemical, dose response (AID 488873). The format is functional.
Assay [4] concerns the target Voltage-dependent T-type calcium channel subunit alpha-1H (Homo sapiens, UniProt O95180). Nature of the assay: human CACNA1H calcium influx blockade – cell-based, synthetic library set 2, HEK293 HH8, Fluo-4, SAR follow-up (AID 493023). The format is functional.
A further assay addresses T4, ORF 73 (Human herpesvirus 8, UniProt O40947).
T4 sequence (O40947 whole entry): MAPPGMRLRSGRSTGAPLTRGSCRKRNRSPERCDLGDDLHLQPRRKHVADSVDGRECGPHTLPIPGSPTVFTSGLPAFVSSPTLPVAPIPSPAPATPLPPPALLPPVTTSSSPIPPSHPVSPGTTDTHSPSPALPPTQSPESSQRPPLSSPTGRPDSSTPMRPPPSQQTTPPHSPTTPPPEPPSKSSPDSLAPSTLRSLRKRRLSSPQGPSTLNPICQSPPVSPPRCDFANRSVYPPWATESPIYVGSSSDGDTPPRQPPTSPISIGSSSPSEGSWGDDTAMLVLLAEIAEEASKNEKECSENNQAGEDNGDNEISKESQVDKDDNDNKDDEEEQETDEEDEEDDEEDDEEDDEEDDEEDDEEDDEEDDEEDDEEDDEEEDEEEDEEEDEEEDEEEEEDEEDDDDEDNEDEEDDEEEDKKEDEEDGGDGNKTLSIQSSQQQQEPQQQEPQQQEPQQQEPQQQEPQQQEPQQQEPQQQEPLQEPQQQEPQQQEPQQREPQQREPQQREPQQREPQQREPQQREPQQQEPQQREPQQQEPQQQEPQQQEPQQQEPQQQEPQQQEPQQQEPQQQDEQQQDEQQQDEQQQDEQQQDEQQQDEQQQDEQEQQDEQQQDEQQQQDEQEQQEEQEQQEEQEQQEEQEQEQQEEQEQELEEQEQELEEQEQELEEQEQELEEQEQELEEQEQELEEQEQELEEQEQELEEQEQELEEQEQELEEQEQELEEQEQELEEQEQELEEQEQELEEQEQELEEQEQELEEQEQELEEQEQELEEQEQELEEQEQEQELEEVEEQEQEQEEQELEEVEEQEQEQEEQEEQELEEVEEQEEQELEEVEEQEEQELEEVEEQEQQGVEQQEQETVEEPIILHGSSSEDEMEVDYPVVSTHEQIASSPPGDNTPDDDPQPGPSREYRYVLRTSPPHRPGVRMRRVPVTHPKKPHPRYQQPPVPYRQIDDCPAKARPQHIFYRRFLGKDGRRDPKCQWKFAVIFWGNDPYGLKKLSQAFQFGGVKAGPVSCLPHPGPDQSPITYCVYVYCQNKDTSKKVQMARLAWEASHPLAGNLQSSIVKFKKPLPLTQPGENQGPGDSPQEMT
Nature of the assay: KSHV LANA DNA-binding disruption – biochemical, fluorescence polarization, cherry-picked samples, dose response (AID 504725).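 Note: fluorescence polarization of a labeled DNA duplex reporting LANA DNA binding; potency is for inhibitors that block LANA binding to the DNA.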 More on the design: species or system Human gammaherpesvirus 8. A general note: In fluorescence polarisation assays a small probe gives low polarisation when free and higher when bound to something large.

The next assay deals with Phospholipase A2 (Homo sapiens, UniProt P04054). Format: functional.
Another assay concerns the target T5, Cysteine protease ATG4B (Homo sapiens, UniProt Q9Y4P1).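 Note: Fluorescence-based dose-response confirmation assay measuring inhibition of ATG4B activity.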
T5 sequence (Q9Y4P1 whole entry): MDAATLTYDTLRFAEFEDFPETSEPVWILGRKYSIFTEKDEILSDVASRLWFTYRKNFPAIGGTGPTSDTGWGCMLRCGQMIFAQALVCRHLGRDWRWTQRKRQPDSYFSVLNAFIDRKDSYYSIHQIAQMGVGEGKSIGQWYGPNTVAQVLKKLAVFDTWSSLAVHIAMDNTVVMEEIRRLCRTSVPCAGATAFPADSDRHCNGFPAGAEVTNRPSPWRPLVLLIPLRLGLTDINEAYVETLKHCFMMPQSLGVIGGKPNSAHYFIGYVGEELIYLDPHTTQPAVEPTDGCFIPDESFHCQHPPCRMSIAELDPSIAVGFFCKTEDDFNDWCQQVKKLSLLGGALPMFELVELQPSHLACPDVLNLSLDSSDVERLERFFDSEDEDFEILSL
Format: functional.

Assay [5] addresses T2, Intestinal-type alkaline phosphatase. The experiment in a line: PubChem AID 488785. Format: functional.
For a further assay, the target named is Large T antigen (Simian virus 40, UniProt P03070). Format: functional, Betapolyomavirus macacae.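 Note: Confirmatory-stage PubChem screen for compounds that inhibit SV40 T antigen.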
A further assay addresses Prothrombin (Bos taurus, UniProt P00735). The experiment in a line: thrombin protease inhibitors – biochemical, fluorescence polarization, uHTS hits, dose response (AID 602369). The format is functional.
Assay [6] has as its target T1, Alkaline phosphatase, tissue-nonspecific isozyme. The experiment in a line: TNAP enzyme inhibition by screening hits, dose response, selectivity assay for mouse IAP inhibitor project, biochemical, human TNAP, uHTS hits (AID 488906). The format is functional.
Assay [7] addresses 26S proteasome non-ATPase regulatory subunit 14 (Homo sapiens, UniProt O00487). The experiment in a line: inhibition of proteasome subunit RPN11 – biochemical, fluorescence polarization, uHTS hits, confirmation (AID 602368). The format is functional.
For assay [8], the target named is 72 kDa type IV collagenase (Homo sapiens, UniProt P08253). Nature of the assay: Dose Response validation of uHTS RPN11 inhibitor hits using a MMP-2 Fluorescence assay. The format is functional.
The target of assay [9] is 1-phosphatidylinositol 4,5-bisphosphate phosphodiesterase gamma-1 (Homo sapiens, UniProt P19174). Nature of the assay: Counterscreen for inhibitors of phospholipase C isozymes (PLC-B3): Fluorescence-based biochemical high throughput dose response assay to identify inhibitors of phospholipase C isozymes (PLC-gamma1).
In assay [10] the target is 1-phosphatidylinositol 4,5-bisphosphate phosphodiesterase beta-3 (Homo sapiens, UniProt Q01970). The experiment in a line: Fluorescence-based biochemical high throughput dose response assay to identify inhibitors of phospholipase C isozymes (PLC-B3).
Assay [11] concerns the target Disintegrin and metalloproteinase domain-containing protein 17 (Homo sapiens, UniProt P78536). The experiment in a line: exosite inhibitors of ADAM17, dose response, biochemical (AID 743260).
Another assay deals with Troponin, cardiac muscle (Homo sapiens, UniProt P19429+P45379+P63316). The experiment in a line: Fluorescence-based biochemical high throughput dose response assay for activators of the calcium sensitivity of cardiac Regulated Thin Filaments (RTF). [Related pubchem assays (depositor defined):AID493008, AID493018, AID504382, AID504383]. Format: protein-complex assay.
Assay [12] can be described thus: inhibition of ADAM10 peptide cleavage – biochemical, FRET peptide substrate, recombinant human ADAM10, selectivity assay for ADAM17 exosite inhibitor project, dose response (AID 743259).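 Note: ADAM10 enzyme cleaving a FRET peptide substrate.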
For assay [13], the target named is T3, Intestinal-type alkaline phosphatase. The experiment in a line: Dose Response confirmation of uHTS hits from a small molecule inhibitors of human intestinal alkaline phosphatase via a luminescent assay. [Related pubchem assays (depositor defined):AID2544, AID2574]. Format: functional.
Assay [14] has the same target. Nature of the assay: human intestinal alkaline phosphatase activators, dose response, biochemical, luminescence, uHTS hits (AID 463120). The format is functional.
The next assay has as its target Ion channel NompC (Danio rerio, UniProt Q7T1G6). Nature of the assay: Dose response cell-based high-throughput screening assay for agonists of the transient receptor potential channel N1 (TRPN1). [Related pubchem assays (depositor defined):AID1424, AID1448]. Format: functional.
The target of a further assay is T6, Mucolipin-3 (Homo sapiens, UniProt Q8TDD5).
T6 sequence (Q8TDD5 whole entry): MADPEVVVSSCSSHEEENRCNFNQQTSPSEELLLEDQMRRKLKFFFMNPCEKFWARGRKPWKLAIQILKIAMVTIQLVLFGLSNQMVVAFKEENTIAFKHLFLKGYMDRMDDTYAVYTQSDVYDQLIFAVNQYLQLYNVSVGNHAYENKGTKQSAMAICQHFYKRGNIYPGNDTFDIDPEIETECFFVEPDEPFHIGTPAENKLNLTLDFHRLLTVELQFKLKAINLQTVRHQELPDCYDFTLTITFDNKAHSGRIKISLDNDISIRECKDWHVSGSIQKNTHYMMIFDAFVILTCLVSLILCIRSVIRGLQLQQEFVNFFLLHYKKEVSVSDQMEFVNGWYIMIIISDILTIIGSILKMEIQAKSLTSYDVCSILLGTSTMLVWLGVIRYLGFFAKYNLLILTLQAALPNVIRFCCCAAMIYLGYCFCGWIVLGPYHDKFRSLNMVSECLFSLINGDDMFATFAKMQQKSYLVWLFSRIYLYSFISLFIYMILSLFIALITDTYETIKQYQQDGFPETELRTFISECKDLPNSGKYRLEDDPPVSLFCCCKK
The experiment in a line: Fluorescence counterscreen assay for […] agonists: dose response cell-based high-throughput screening assay to identify agonists of the transient receptor potential channel ML3 (TRPML3). [Related pubchem assays: 1424, 1448 ]. Format: functional. On the technique in general: A counterscreen serves to expose hits that act by an unwanted route or on another target.

The test system of another assay is Streptococcus. Nature of the assay: GAS UMAA2166 growth inhibition – luminescence, BacTiterGlo, counter-screen for streptokinase expression inhibitor project, dose response (AID 1915).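 Note: potency for reduction of bacterial viability or growth.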 The format is functional, organism-based.
For assay [15], the system named is Streptococcus sp. 'group A'. The experiment in a line: Streptococcus pyogenes SK(-)GAS viability under kanamycin – luminescence, BacTiterGlo, confirmation, counter-screen for streptokinase expression inhibitor project, dose response (AID 1900). Format: functional, organism-based.

T3 sequence (P09923 whole entry): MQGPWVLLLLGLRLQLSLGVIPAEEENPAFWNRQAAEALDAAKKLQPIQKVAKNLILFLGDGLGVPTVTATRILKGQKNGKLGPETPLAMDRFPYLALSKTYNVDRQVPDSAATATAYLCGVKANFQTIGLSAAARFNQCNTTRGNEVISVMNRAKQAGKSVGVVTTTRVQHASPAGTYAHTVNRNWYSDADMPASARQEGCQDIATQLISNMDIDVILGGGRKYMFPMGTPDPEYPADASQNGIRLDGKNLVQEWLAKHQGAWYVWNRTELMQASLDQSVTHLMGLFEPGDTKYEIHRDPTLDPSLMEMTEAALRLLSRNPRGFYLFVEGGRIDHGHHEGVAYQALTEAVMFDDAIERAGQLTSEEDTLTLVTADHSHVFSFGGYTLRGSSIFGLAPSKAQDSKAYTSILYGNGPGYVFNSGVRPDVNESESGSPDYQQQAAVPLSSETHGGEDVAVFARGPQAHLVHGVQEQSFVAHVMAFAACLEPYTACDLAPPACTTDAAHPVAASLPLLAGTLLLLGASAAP
T2 sequence (P24822 whole entry): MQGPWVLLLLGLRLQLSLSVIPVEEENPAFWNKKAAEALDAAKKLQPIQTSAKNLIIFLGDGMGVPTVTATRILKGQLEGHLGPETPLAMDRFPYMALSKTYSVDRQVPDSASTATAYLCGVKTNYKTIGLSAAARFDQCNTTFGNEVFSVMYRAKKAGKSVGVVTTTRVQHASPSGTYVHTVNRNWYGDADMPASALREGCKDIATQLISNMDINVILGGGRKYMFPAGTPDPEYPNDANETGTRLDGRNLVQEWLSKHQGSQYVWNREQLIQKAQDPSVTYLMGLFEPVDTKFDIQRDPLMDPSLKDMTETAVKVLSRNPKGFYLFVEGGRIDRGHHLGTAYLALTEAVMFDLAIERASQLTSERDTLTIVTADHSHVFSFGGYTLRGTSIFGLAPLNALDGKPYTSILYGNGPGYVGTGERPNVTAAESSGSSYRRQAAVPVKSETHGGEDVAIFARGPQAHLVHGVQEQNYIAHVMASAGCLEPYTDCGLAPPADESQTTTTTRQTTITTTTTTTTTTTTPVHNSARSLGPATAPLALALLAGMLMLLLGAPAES
Chain of Voltage-dependent T-type calcium channel subunit alpha-1H (O95180 whole entry): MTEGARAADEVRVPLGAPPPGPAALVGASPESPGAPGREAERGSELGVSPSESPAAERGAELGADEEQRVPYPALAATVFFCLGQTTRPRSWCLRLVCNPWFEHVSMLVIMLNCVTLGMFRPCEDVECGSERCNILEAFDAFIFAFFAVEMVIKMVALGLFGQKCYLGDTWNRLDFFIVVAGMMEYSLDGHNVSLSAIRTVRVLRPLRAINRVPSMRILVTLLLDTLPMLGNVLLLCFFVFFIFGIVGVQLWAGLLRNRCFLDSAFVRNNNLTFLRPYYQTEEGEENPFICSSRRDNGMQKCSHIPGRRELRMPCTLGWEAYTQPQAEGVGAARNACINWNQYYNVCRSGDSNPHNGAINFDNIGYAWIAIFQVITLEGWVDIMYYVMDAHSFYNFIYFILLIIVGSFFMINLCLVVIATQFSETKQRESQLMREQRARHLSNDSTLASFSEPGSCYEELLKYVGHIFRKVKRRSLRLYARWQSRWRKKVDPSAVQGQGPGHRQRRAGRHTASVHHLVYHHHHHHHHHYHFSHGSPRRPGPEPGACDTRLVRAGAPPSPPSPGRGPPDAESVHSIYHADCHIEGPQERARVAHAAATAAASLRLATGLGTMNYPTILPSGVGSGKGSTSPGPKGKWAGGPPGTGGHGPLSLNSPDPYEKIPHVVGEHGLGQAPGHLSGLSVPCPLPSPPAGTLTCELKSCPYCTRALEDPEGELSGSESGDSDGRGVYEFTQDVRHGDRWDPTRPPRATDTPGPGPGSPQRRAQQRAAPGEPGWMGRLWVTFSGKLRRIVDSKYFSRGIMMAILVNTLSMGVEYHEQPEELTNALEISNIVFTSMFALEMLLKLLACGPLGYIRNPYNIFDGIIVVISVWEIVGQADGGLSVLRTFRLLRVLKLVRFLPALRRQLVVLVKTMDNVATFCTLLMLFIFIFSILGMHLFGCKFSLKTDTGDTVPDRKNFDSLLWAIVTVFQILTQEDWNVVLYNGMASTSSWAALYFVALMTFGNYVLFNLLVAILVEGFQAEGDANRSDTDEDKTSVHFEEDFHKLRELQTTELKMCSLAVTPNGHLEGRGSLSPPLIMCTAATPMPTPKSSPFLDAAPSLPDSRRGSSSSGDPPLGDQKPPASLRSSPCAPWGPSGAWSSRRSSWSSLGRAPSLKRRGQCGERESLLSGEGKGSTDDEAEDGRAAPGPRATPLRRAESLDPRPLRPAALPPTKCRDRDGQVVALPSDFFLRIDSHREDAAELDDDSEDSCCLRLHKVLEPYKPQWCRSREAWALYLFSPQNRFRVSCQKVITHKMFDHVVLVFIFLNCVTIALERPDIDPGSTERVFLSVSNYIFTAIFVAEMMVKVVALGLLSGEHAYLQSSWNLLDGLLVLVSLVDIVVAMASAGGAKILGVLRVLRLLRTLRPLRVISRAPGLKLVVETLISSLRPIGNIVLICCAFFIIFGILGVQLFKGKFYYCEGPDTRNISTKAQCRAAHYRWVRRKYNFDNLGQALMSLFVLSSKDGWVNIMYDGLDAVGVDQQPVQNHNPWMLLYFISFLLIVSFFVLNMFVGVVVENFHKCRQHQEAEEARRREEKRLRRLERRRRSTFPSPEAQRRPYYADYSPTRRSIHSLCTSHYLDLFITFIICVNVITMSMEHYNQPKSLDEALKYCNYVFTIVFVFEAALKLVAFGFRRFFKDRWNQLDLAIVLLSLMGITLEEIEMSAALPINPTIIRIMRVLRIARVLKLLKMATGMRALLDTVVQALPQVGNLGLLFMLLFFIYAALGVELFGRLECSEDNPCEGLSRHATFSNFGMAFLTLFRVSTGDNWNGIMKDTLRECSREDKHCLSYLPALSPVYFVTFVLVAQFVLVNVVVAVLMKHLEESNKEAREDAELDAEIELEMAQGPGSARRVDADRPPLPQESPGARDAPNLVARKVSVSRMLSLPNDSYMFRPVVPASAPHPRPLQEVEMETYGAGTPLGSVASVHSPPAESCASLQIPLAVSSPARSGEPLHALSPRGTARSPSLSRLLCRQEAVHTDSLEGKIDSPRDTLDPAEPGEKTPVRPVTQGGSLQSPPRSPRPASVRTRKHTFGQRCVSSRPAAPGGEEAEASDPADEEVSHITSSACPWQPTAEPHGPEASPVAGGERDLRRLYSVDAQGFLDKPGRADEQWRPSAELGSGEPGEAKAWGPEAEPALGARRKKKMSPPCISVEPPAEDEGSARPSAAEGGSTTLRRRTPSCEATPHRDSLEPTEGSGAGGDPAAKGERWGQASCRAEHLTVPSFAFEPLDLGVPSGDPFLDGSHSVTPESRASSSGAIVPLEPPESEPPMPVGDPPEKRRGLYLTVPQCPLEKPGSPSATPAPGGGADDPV
Chain of Ion channel NompC (Q7T1G6 whole entry): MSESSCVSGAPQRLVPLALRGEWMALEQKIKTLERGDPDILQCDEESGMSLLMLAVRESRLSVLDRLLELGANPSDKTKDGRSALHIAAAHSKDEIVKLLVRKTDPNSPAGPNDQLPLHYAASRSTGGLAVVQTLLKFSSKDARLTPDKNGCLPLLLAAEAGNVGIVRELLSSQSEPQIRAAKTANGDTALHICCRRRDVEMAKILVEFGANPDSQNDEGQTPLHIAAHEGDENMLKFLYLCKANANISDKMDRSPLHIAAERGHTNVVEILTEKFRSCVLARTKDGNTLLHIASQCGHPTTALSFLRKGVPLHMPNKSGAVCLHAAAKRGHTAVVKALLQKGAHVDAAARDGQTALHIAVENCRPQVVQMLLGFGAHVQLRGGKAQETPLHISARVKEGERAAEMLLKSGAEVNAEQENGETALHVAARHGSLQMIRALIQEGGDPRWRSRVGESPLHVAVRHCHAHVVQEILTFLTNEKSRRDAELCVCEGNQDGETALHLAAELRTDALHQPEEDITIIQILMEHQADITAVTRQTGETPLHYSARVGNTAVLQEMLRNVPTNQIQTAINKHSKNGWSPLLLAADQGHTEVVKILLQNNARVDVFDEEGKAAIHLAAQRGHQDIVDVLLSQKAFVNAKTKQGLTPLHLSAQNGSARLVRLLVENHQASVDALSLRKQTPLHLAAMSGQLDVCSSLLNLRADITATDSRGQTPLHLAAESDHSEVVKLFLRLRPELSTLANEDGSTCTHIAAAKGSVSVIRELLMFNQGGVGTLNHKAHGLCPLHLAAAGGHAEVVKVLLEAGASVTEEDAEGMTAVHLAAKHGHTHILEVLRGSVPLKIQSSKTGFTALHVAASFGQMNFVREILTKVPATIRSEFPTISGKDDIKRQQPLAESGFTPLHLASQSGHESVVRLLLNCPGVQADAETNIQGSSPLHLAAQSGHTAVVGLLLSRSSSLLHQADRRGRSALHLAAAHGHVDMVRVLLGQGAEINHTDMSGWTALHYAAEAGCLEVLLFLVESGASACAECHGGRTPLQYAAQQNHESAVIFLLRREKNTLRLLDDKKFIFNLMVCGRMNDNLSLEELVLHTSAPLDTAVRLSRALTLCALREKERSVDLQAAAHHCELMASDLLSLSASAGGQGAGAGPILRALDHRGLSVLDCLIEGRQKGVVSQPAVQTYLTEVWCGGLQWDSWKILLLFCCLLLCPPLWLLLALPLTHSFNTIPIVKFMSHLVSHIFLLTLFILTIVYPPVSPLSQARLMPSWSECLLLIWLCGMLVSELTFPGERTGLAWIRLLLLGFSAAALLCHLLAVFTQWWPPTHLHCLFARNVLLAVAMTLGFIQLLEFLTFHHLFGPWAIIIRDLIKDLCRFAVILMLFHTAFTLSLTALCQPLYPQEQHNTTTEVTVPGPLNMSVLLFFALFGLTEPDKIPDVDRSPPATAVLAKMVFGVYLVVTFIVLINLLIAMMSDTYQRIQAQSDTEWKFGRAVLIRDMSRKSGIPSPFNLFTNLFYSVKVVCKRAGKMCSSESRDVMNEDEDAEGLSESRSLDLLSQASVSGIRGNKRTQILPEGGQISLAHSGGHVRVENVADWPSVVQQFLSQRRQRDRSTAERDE

As to `COc1ccc(/N=C2\SC(C(N)=O)CC(=O)N2CCc2ccc(OC)c(OC)c2)cc1` (stereo not drawn), the values for the EC50 in assay [1], in assay [2] and in [3] were 48.9 µM (active), 13.3 µM (active) and 59.6 µM (active), respectively.
On to `CC(C)(C)CCN1CCC[C@H](NC(=O)c2cc(Cl)cc(Cl)c2)C1`, for which, in [4], the EC50 is 10 µM (active).
In the case of `O=C(CN1C(=O)/C(=C/c2ccco2)SC1=S)Nc1ccc(C(=O)O)c(O)c1`, on ORF 73, the AC50 is 76.1 µM (active). Also, the IC50 is 16.8 µM (active) at Phospholipase A2; 6.89 µM (active) at Cysteine protease ATG4B; 9.42 µM (active) in [5]; 76.9 µM (active) on Large T antigen; 45.8 µM (active) at Prothrombin; > 100 µM (inactive) in assay [6]. The IC50 in assay [7] was 19.4 µM (active); in assay [8], 2.32 µM (active); in assay [9], > 122 µM (inactive); in assay [10] it was > 122 µM (inactive). Further, in assay [3], the EC50 was > 100 µM (inactive).
Take `O=C(N[C@H]1CCCN(Cc2ccccc2)C1)c1ccc(Cl)cc1Cl`: in assay [4], the EC50 was 10 µM (active).
Consider `CCC(C(=O)O)N1C(=O)/C(=C/c2cccn2C)SC1=S` (stereo not drawn), for which the IC50 in [11] is > 23.2 µM (inactive); in assay [12] it was 12.5 µM (inactive). The EC50 on Troponin, cardiac muscle was 14.4 µM (inactive).
On to `CC(C)CCNC(=O)C1CCN(C(=O)N(C)C)CC1`, for which the IC50 in [13] was > 100 µM (inactive). Further, the EC50 in [14] was > 100 µM (inactive).
In the case of `CC(C)S(=O)(=O)c1csc(NC(=O)Nc2ccc(Cl)cc2)c1`, the EC50 at Ion channel NompC was > 29.9 µM (inactive); on Mucolipin-3, > 29.9 µM (not active).
With `CCOc1cc(/C=C(\C#N)c2nc(-c3cccs3)c(NC(C)=O)s2)ccc1O`, the EC50 was 2.02 µM (active) with Streptococcus, 13.4 µM (inactive) on Ion channel NompC, > 29.9 µM (not active) on Mucolipin-3 and 0.628 µM (active) in assay [15].
